According to patent US20050227999A1, “Diarylamine derivatives as calcium channel blockers” (NeuroMed Technologies Inc., priority 2004, published 2005):
Like-named read-outs stand apart in the source and are kept apart here.

Legend:
[1] = target: T1, rat brain N-type calcium channel subunits (α1B+α2δ+β1b cDNA subunits) (Rattus norvegicus, UniProt Q02294); assay: N-type calcium channel block, whole cell patch clamp in transfected HEK 293 cells; type: cell-based; settings: holding potential −80 mV to +10 mV
T1 construct: expressed in transfected cells; host or cells: HEK 293
Method: N-type calcium channel blocking activity was assayed in human embryonic kidney cells, HEK 293, stably transfected with the rat brain N-type calcium channel subunits (α1B+α2δ+β1b cDNA subunits). Alternatively, N-type calcium channels (α1B+α2δ+β1b cDNA subunits), L-type channels (α1C+δ+β1b cDNA subunits) and P/Q-type channels (α1A+α2δ+β1b cDNA subunits) were transiently expressed in HEK 293 cells. Briefly, cells were cultured in Dulbecco's modified eagle medium (DMEM) supplemented with 10% fetal bovine serum, 200 U/ml penicillin and 0.2 mg/ml streptomycin at 37° C. with 5% CO2. At 85% confluency cells were split with 0.25% trypsin/l mM EDTA and plated at 10% confluency on glass coverslips. At 12 hours the medium was replaced and the cells transiently transfected using a standard calcium phosphate protocol and the appropriate calcium channel cDNA's. Fresh DMEM was supplied and the cells transferred to 28° C./5% CO2. Cells were incubated for 1 to 2 days before cell recording.
Whole cell patch clamp experiments were performed using an Axopatch 200B amplifier (Axon Instruments, Burlingame, Calif.) linked to a personal computer equipped with PCLAMP software. The external and internal recording solutions contained, respectively, 5 mM BaCl2, 10 mM MgCl2, 10 mM HEPES, 40 mM TEACl, 10 mM glucose, 87.5 mM CsCl (pH 7.2) and 108 mM CsMS, 4 mM MgCl2, 9 mM EGTA, 9 mM HEPES (pH 7.2). Currents were typically elicited from a holding potential of −80 mV to +10 mV using Clampex software (Axon Instruments). Typically, currents were first elicited with low frequency stimulation (0.067 Hz) and allowed to stabilize prior to application of the compounds. The compounds were then applied during the low frequency pulse trains for two to three minutes to assess tonic block, and subsequently the pulse frequency was increased to 0.2 Hz to assess frequency dependent block. Data were analyzed using Clampfit (Axon Instruments) and SigmaPlot 4.0 (Jandel Scientific). […]

[2] = target: T2, human α1G T-type channels (Homo sapiens, UniProt O43497); assay: T-type calcium channel block, patch clamp in HEK cell lines; type: cell-based
T2 construct: expressed in transfected cells
T2 sequence (O43497 whole entry): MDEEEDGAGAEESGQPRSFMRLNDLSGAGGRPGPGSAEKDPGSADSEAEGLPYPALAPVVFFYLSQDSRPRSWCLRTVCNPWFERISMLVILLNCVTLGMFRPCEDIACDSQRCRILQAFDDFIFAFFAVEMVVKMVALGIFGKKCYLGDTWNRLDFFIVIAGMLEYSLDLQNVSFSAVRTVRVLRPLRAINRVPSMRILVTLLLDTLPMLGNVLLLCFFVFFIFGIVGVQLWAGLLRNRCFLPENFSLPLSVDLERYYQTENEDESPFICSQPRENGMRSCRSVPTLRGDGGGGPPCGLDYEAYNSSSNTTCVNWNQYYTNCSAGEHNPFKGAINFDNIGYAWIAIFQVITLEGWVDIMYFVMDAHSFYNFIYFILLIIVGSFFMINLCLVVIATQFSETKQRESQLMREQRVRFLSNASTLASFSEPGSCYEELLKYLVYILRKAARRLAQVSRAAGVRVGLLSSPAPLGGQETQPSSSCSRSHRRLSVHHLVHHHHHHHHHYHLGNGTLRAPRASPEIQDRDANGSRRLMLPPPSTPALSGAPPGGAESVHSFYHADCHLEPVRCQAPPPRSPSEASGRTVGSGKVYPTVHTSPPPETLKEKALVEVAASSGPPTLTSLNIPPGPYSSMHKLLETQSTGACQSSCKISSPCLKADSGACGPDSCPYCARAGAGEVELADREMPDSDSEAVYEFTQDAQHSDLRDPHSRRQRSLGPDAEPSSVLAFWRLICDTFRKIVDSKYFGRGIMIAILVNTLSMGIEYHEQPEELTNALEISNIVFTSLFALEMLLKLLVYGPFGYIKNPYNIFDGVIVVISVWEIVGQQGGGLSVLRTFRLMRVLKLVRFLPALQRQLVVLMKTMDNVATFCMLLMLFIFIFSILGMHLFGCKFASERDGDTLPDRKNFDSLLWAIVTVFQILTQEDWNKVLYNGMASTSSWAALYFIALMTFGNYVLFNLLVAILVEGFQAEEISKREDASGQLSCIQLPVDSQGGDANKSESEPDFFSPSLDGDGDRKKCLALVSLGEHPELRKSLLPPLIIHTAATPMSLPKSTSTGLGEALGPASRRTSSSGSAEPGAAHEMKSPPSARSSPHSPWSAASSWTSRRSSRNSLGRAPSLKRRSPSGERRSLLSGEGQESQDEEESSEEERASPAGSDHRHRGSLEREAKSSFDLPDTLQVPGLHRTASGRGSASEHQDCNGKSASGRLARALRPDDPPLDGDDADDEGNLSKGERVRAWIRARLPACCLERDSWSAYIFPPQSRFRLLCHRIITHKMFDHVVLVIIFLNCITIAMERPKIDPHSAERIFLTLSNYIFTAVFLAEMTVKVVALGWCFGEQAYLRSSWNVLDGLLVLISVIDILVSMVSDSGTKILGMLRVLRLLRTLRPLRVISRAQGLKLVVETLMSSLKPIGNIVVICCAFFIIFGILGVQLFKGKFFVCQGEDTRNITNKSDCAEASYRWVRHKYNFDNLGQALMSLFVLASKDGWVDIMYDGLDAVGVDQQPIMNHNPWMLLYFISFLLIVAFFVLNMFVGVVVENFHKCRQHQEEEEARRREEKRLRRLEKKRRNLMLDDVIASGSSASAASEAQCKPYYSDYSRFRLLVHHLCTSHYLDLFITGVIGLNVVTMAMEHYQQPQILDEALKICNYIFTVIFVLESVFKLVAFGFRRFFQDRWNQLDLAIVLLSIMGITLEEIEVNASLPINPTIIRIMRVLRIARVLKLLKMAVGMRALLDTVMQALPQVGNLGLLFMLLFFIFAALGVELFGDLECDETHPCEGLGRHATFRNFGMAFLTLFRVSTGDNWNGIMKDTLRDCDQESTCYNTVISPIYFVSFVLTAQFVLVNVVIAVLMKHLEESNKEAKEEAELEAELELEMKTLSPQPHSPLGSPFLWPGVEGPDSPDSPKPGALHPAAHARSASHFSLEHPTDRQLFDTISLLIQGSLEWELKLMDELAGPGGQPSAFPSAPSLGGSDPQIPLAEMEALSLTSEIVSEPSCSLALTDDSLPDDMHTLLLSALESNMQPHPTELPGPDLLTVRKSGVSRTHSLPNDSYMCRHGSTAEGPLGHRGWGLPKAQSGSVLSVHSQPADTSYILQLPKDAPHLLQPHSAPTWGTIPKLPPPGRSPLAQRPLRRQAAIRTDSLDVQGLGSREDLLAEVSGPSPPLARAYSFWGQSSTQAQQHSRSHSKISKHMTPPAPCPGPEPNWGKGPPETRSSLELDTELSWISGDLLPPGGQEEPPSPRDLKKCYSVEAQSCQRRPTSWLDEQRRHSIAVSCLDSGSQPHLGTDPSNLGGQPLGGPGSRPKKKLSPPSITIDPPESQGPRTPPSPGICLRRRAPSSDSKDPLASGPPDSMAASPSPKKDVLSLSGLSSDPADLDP
Method: Standard patch-clamp techniques were employed to identify blockers of T-type currents. Briefly, previously described HEK cell lines stably expressing human α1G T-type channels were used for all the recordings (passage #: 4-20, 37° C., 5% CO2). To obtain T-type currents, plastic dishes containing semi-confluent cells were positioned on the stage of a ZEISS AXIOVERT S100 microscope after replacing the culture medium with external solution (see below). Whole-cell patches were obtained using pipettes (borosilicate glass with filament, O.D.: 1.5 mm, I.D.: 0.86 mm, 10 cm length), fabricated on a SUTTER P-97 puller with resistance values of ˜5 MΩ (see below for internal solution).
In the non-inactivating protocol, the holding potential is set at −110 mV and with a pre-pulse at −100 mV for 1 second prior to the test pulse at 40 mV for 50 ms. […]
Test compounds were dissolved in external solution, 0.1-0.01% DMSO. After ˜10 min rest, they were applied by gravity close to the cell using a WPI microfil tubing. The “non-inactivated” pre-pulse was used to examine the resting block of a compound. The “inactivated” protocol was employed to study voltage-dependent block. However, the initial data shown below were mainly obtained using the non-inactivated protocol only. IC50 values are shown for various compounds of the invention in Table 4.

[3] = low frequency stimulation 0.067 Hz (tonic block), read-out: IC50 @ 0.067 Hz
[4] = pulse frequency 0.2 Hz (frequency dependent block), read-out: IC50 @ 0.2 Hz
[5] = −80 mV (inactivation protocol, voltage-dependent block), read-out: IC50 - 80 mV
[6] = −100 mV pre-pulse (non-inactivating protocol, resting block)
[7] = −100 mV pre-pulse (non-inactivating protocol, resting block), read-out: IC50 - 100 mV

SMILES	IC50 [1, 3]	IC50 [1, 4]	IC50 [2, 5]	IC50 - 100 mV [2, 6]	IC50 [2, 7]
O=C(CN(c1ccccc1)c1ccccc1)N1CCN(C(c2ccccc2)c2ccc(Cl)cc2Cl)CC1 (stereo not shown) [Compound 3, 1-{4-[(2,4-Dichloro-phenyl)-phenyl-methyl]-piperazin-1-yl}-2-diphenylamino-ethanone]	550 nM	460 nM	6000 nM	no effect	
O=C(CN(c1ccccc1)c1ccccc1)N1CCN(C(c2ccccc2)c2ccccc2Cl)CC1 (stereo not shown) [Compound 6, 1-{4-[(2-Chloro-phenyl)-phenyl-methyl]-piperazin-1-yl}-2-diphenylamino-ethanone]	330 nM	320 nM	1200 nM	no effect	
O=C(CN(c1ccccc1)c1ccccc1)N1CCN(C(c2ccccc2)c2ccccc2)CC1 [Compound 1, 1-(4-Benzhydryl-piperazin-1-yl)-2-diphenylamino-ethanone]	6630 nM	6610 nM	510 nM		1350 nM
O=C(CN(c1ccccc1)c1ccccc1)N1CCN(C(c2ccccc2)c2cccc(Cl)c2)CC1 (stereo not shown) [Compound 5, 1-{4-[(3-Chloro-phenyl)-phenyl-methyl]-piperazin-1-yl}-2-diphenylamino-ethanone]	310 nM	280 nM	800 nM	no effect	
CN1CCCC(CN2CCN(C(=O)CN(c3ccccc3)c3ccccc3)CC2)C1 (stereo not shown) [Compound 10, 2-Diphenylamino-1-[4-(1-methyl-piperidin-3-ylmethyl)-piperazin-1-yl]-ethanone]	1100 nM	980 nM	2000 nM		10000 nM
O=C(CN1CCN(C(c2ccccc2)c2ccccc2)CC1)N(c1ccccc1)c1ccccc1 [Compound 16, 2-(4-Benzhydryl-piperazin-1-yl)-N,N-diphenyl-acetamide]	290 nM	260 nM	1300 nM	no effect	
Cc1ccc(C(c2ccccc2)N2CCN(C(=O)CN(c3ccccc3)c3ccccc3)CC2)c(C)c1 (stereo not shown) [Compound 2, 1-{4-[(2,4-Dimethyl-phenyl)-phenyl-methyl]-piperazin-1-yl}-2-diphenylamino-ethanone]	290 nM	260 nM	444 nM		2000 nM
O=C(CN(c1ccccc1)c1ccccc1)N1CCN(C(c2ccccc2)c2ccc(Cl)cc2)CC1 (stereo not shown) [Compound 4, 1-{4-[(4-Chloro-phenyl)-phenyl-methyl]-piperazin-1-yl}-2-diphenylamino-ethanone]	550 nM	500 nM	748 nM		3800 nM

The next lines start with the values.

IC50 [1, 3]	IC50 [1, 4]	IC50 [2, 5]	IC50 - 100 mV [2, 6]	IC50 [2, 7]	SMILES
460 nM	460 nM	3700 nM		5700 nM	CN1CCC(CN2CCN(CC(=O)N(c3ccccc3)c3ccccc3)CC2)CC1 [Compound 25, 2-[4-(1-Methyl-piperidin-4-ylmethyl)-piperazin-1-yl]-N,N-diphenyl-acetamide]
350 nM	340 nM	1000 nM	no effect		CN(C)CCCN1CCN(CC(=O)N(c2ccccc2)c2ccccc2)CC1 [Compound 26, 2-[4-(3-Dimethylamino-propyl)-piperazin-1-yl]-N,N-diphenyl-acetamide]
340 nM	320 nM	33 nM		114 nM	O=C(CN1CCN(C(c2ccccc2)c2cccc(Cl)c2)CC1)N(c1ccccc1)c1ccccc1 (stereo not shown) [Compound 20, 2-{4-[(3-Chloro-phenyl)-phenyl-methyl]-piperazin-1-yl}-N,N-diphenyl-acetamide]
190 nM	110 nM	22 nM		72 nM	O=C(CN1CCN(C(c2ccccc2)c2ccc(Cl)cc2)CC1)N(c1ccccc1)c1ccccc1 (stereo not shown) [Compound 19, 2-{4-[(4-Chloro-phenyl)-phenyl-methyl]-piperazin-1-yl}-N,N-diphenyl-acetamide]
830 nM	510 nM	29 nM		118 nM	O=C(CN1CCN(C(c2ccccc2)c2ccc(Cl)cc2Cl)CC1)N(c1ccccc1)c1ccccc1 (stereo not shown) [Compound 17, 2-{4-[(2,4-Dichloro-phenyl)-phenyl-methyl]-piperazin-1-yl}-N,N-diphenyl-acetamide]
300 nM	240 nM	16 nM		81 nM	O=C(CN1CCN(C(c2ccccc2)c2cccc(Cl)c2Cl)CC1)N(c1ccccc1)c1ccccc1 (stereo not shown) [Compound 22, 2-{4-[(2,3-Dichloro-phenyl)-phenyl-methyl]-piperazin-1-yl}-N,N-diphenyl-acetamide]
1760 nM	1250 nM	84 nM		229 nM	Cc1ccc(C(c2ccccc2)N2CCN(CC(=O)N(c3ccccc3)c3ccccc3)CC2)c(C)c1 (stereo not shown) [Compound 18, 2-{4-[(2,4-Dimethyl-phenyl)-phenyl-methyl]-piperazin-1-yl}-N,N-diphenyl-acetamide]
124 nM	52 nM	34 nM		134 nM	O=C(CN1CCN(C(c2ccccc2)c2ccccc2Cl)CC1)N(c1ccccc1)c1ccccc1 (stereo not shown) [Compound 21, 2-{4-[(2-Chloro-phenyl)-phenyl-methyl]-piperazin-1-yl}-N,N-diphenyl-acetamide]
